The text below walks through data of ChEMBL document CHEMBL1201862, “PubChem BioAssay data set” (2004).

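Assay format: 96-well plates, 48-hour exposure. GI50 marks 50% less growth.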 Calls of active or inactive are those of the source. Rule as the data show it: active = GI50 up to about 1.1 µM and inactive = higher.

Holding throughout (assay): NCI-60 cell line screen, 48 h
Assay [1] deals with SK-MEL-2.
Assay [2] has as its system EKVX.
The subject of assay [3] is SF-295.
Assay [4] deals with DU-145.
For assay [5], the system named is HCT-116.
Assay [6] has as its system U-251.
Assay [7] deals with NCI-H226.
Assay [8] has as its system ACHN.
Assay [9] deals with NCI-H23.
Assay [10] concerns OVCAR-4.
The subject of assay [11] is A549.
Assay [12] relates to UO-31.
In assay [13] the test system is MDA-N.
In assay [14] the test system is MCF7.
The test system of assay [15] is M14.
Assay [16] relates to A498.
The subject of assay [17] is CAKI-1.
Assay [18] concerns PC-3.
The test system of assay [19] is T47D.
Assay [20] relates to HT-29.

For the compound `CC[N+]1(C)CCC(O)(c2ccc(OC)cc2)C(C(=O)c2ccc(OC)cc2)C1` (stereo not given), the GI50 is 18.8 µM (inactive) in [1]; 19.8 µM (inactive) in [2]; 20 µM (inactive) in assay [3]; 15.9 µM (inactive) in [4]; 9.27 µM (inactive) in assay [5]; 1.54 µM (inactive) in assay [6]. For the same compound, the GI50 in assay [7] is 18.7 µM (inactive); in assay [8], 13.1 µM (inactive); in assay [9], 17.9 µM (inactive); in [10], 22 µM (inactive); in assay [11], 19.9 µM (inactive); in assay [12], 18.7 µM (inactive). For the same compound, the GI50 in assay [13] is 16.6 µM (inactive); in assay [14] it was 4.4 µM (inactive); in [15] it was 8.69 µM (inactive); in assay [16], 17.6 µM (inactive); in [17] it was 5.9 µM (inactive); in [18], 17.7 µM (inactive). For the same compound, the GI50 in [19] is 13.4 µM (inactive); in assay [20], 7.03 µM (inactive).

Consider `Cc1ccc(CC2(OCCN(C)C)CCC(C(C)(C)C)CC2)cc1` (stereo not given), for which the GI50 in [1] was 1.97 µM (inactive); in [2], 6.14 µM (inactive); in assay [3] it was 5.22 µM (inactive); in assay [4], 3.78 µM (inactive); in assay [5], 2.38 µM (inactive); in assay [6], 2.34 µM (inactive). Further, the GI50 was 5.78 µM (inactive) in [7]; 6.87 µM (inactive) in assay [8]; 10.7 µM (inactive) in assay [9]; 4.16 µM (inactive) in assay [10]; 3.6 µM (inactive) in assay [11]; 3.49 µM (inactive) in [12]. Moreover, the GI50 in assay [13] was 2.53 µM (inactive); in [14], 2.43 µM (inactive); in assay [15], 1.79 µM (inactive); in assay [16], 13 µM (inactive); in assay [17], 4.99 µM (inactive); in [18], 3.04 µM (inactive). Also, the GI50 was 2.87 µM (inactive) in assay [19] and 2.13 µM (inactive) in assay [20].

Turning to `O=C(O)c1[nH]c(=O)[nH]c(=O)c1CN1CCCCC1`, the GI50 in [1], in assay [2], in assay [3], in [4], in [5] and in [6] was > 100 µM (inactive) each time. Moreover, the GI50 in assay [7], in assay [8], in assay [9], in [10], in assay [11] and in assay [12] was > 100 µM (inactive) each time. The GI50 in assay [13], in [14], in [15], in assay [16], in assay [17] and in assay [18] was > 100 µM (inactive) throughout. Moreover, the GI50 in assay [19] and in assay [20] was > 100 µM (inactive) each time.

Take `Nc1ccn(C2OC(CO)C(O)C2O)c(=O)n1` (stereo not given): the GI50 in assay [1] was 457 µM (inactive); in assay [2], 267 µM (inactive); in assay [3] it was 12.8 µM (inactive); in [4] it was 1.74 µM (inactive); in assay [5] it was 0.207 µM (active); in [6], 8.89 µM (inactive). Also, the GI50 is 239 µM (inactive) in assay [7]; 0.277 µM (active) in assay [8]; 0.248 µM (active) in assay [9]; 457 µM (inactive) in assay [10]; 0.14 µM (active) in [11]; 6.15 µM (inactive) in assay [12]. Besides, the GI50 in assay [13] was 7.45 µM (inactive); in [14], 0.156 µM (active); in assay [15] it was 0.186 µM (active); in [16], 18 µM (inactive); in [17] it was 1.04 µM (active); in assay [18], 36.5 µM (inactive). Further, the GI50 in [19] is 330 µM (inactive); in assay [20], 112 µM (inactive).

`CC1(C)CCN2C(=O)C34CCCC3CC21S4` (stereo not given): the GI50 in [1], in assay [2], in assay [3], in assay [4], in assay [5] and in [6] was > 100 µM (inactive) each time. The GI50 in [7], in [8], in assay [9], in assay [10], in assay [11] and in [12] was > 100 µM (inactive) throughout. In addition, the GI50 in [13], in assay [14], in assay [15], in assay [16], in assay [17] and in assay [18] was > 100 µM (inactive) each time. In addition, the GI50 in assay [19] and in [20] was > 100 µM (inactive) in each case.

`N=C(N)N/N=C/c1nc2n(c1[N+](=O)[O-])CCS2`: the GI50 is 17.5 µM (inactive) in assay [1]; 22.9 µM (inactive) in assay [2]; 26.4 µM (inactive) in assay [3]; 27.3 µM (inactive) in [4]; 21.9 µM (inactive) in assay [5]; 15.7 µM (inactive) in [6]. Moreover, the GI50 in [7] was 35.8 µM (inactive); in assay [8], > 100 µM (inactive); in assay [9], 14.5 µM (inactive); in [10], 16.2 µM (inactive); in assay [11], 26.8 µM (inactive); in assay [12] it was > 100 µM (inactive). Also, the GI50 in [13] was 32.1 µM (inactive); in assay [14], 15 µM (inactive); in assay [15], 25.2 µM (inactive); in assay [16], 43.3 µM (inactive); in [17], > 100 µM (inactive); in assay [18] it was 31.6 µM (inactive). The GI50 in assay [19] is 17.3 µM (inactive); in [20], 30.2 µM (inactive).

For the compound `CCOc1ccc2nc(NC(=O)C(=O)C(C(=O)c3ccccc3-c3ccccc3)C3OC(=O)c4ccccc43)sc2c1` (stereo not given), the GI50 was 17.8 µM (inactive) in assay [1]; 19.8 µM (inactive) in assay [2]; 21.6 µM (inactive) in assay [3]; 21.9 µM (inactive) in [4]; 18.4 µM (inactive) in assay [5]; 15 µM (inactive) in assay [6]. In addition, the GI50 in [7] is 5.31 µM (inactive); in assay [8], 30.2 µM (inactive); in [9] it was 17.9 µM (inactive); in [10], 35.2 µM (inactive); in assay [11], 26.4 µM (inactive); in assay [12], 22.4 µM (inactive). The GI50 was 19.6 µM (inactive) in [13]; 21.2 µM (inactive) in assay [14]; 27.6 µM (inactive) in assay [15]; 22.1 µM (inactive) in assay [16]; 23.2 µM (inactive) in [17]; 18.2 µM (inactive) in assay [18]. For the same compound, the GI50 in [19] was 13.9 µM (inactive); in assay [20], 19.4 µM (inactive).

Regarding `CCCCCC/C=C\CCCCCCCCCc1c(O)c(OC)cc(O)c1CN(C)C`, the GI50 in assay [1] is 20.7 µM (inactive); in [2] it was 10.7 µM (inactive); in [3], 5.38 µM (inactive); in assay [4], 17.9 µM (inactive); in [5] it was 3.85 µM (inactive); in [6], 3.73 µM (inactive). Moreover, the GI50 in assay [7] is 17 µM (inactive); in assay [8], 10.7 µM (inactive); in assay [9] it was 8.61 µM (inactive); in [10] it was 1.47 µM (inactive); in assay [11], 4.04 µM (inactive); in assay [12] it was 4.21 µM (inactive). Further, the GI50 in [13] was 13 µM (inactive); in assay [14], 2.55 µM (inactive); in assay [15], 11.4 µM (inactive); in [16] it was 17 µM (inactive); in [17] it was 13.8 µM (inactive); in [18] it was 2.96 µM (inactive). Besides, the GI50 in assay [19] is 1.76 µM (inactive); in [20], 4.44 µM (inactive).

For `NC(Cc1ncccn1)C(=O)O` (stereo not given), the GI50 in [1], in [2], in [3], in [4], in [5] and in assay [6] was > 100 µM (inactive) each time. Besides, the GI50 in assay [7], in assay [8], in assay [9], in assay [10], in [11] and in assay [12] was > 100 µM (inactive) each time. The GI50 in [13], in assay [14], in assay [15], in assay [16], in assay [17] and in assay [18] was > 100 µM (inactive) throughout. Besides, the GI50 in [19] and in [20] was > 100 µM (inactive) each time.

Consider `O=C(c1cccs1)N1CCN(C(=O)c2cccs2)C1=S`, for which the GI50 in [1] was 11.9 µM (inactive); in [2] it was 13.9 µM (inactive); in [3], 16.4 µM (inactive); in assay [4], 2.51 µM (inactive); in assay [5] it was 8.77 µM (inactive); in assay [6], 5.92 µM (inactive). Also, the GI50 is 15.8 µM (inactive) in [7]; 7.41 µM (inactive) in assay [8]; 12.7 µM (inactive) in assay [9]; 16.9 µM (inactive) in assay [10]; 3.96 µM (inactive) in assay [11]; 2.33 µM (inactive) in assay [12]. The GI50 was 3.69 µM (inactive) in assay [13]; 3.18 µM (inactive) in [14]; 3.83 µM (inactive) in [15]; 15.1 µM (inactive) in assay [16]; 3.68 µM (inactive) in assay [17]; 4.5 µM (inactive) in assay [18]. Also, the GI50 was 4.15 µM (inactive) in [19] and 6.71 µM (inactive) in [20].
